What was measured:
Assay type in all cases: cell-based
HIV-1 strain NL4-3 [1] = test: Anti-HIV-1 luciferase indicator assay in MT2 cells, NL4-3; details: viral strain NL4-3
Experimental: (§1) Compound was dissolved in DMSO to make 30 mM stock. Then the 30 mM stock is further diluted to 4 mM using DMSO. The 4 mM stock was used as the top concentration to carry out an 11-point, 3-fold dilution scheme using DMSO in a 96-well plate to make the compound dose plate. Compounds in the dose plate were transferred to a new 96-well plate (working plate) containing PBS with 0.05% pluronic acid. From this working plate, the compound solution was transferred to the 384-well assay plates.
(§2) Control compounds used in compound control wells were prepared and added to assay plates individually.
(§3) MT2 cells were mixed with HIV-1 strain NL4-3 (or IIIB, or CNHN24) and the cell/virus mixture was added to the aforementioned antivirus assay plates. After incubation in a 37° C., 5% CO2 incubator, the supernatant from the assay plate was transferred to a new 384-well plate containing the indicator cells with a fire fly luciferase gene under HIV-1 LTR control. The expression level of luciferase was related to HIV-1 infectivity and was measured by Bright-Glo kit (Promega).
(§4) Therapeutic index (TI) was determined by taking ratio of CC50/IC50

HIV-1 strain IIIB [2] = test: Anti-HIV-1 luciferase indicator assay in MT2 cells, IIIB; details: viral strain II B
Experimental: as §1, §2, §3, §4

HIV-1 strain CNHN24 [3] = test: Anti-HIV-1 luciferase indicator assay in MT2 cells, CNHN24; details: viral strain CNHN24
Experimental: as §1, §2, §3, §4

in vitro [4] = details: human, CC50
Experimental: as §1
For cytotoxicity assay the same amount of MT2 cells as in antivirus assay but without HIV-1 virus were added to the cytotoxicity plates. The cytotoxicity was measured by Cell Titer-Glo cell viability assay (Promega).

HIV-1 strain NL4-3 [5] = test: Anti-HIV-1 luciferase indicator assay in PBMC cells, NL4-3; details: Human immunodeficiency virus 1, NL43, viral strain NL4-3
Experimental: as §1, with “stock was” for “stock is”, “working plate” for “working plate,”
(§5) Control compounds for cpd control wells were prepared and added to assay plates individually.
(§6) PBMC cells were isolated from human whole blood using Histopaque-1077 (Sigma, #10771) and frozen down and kept in liquid nitrogen tank. Two days before the assay PBMC was recovered and cultured in medium containing PHA-P (Sigma, #L1668). On the day of assay PBMC cells were pelleted down and resuspended in medium containing IL-2 (Sigma, #I7908), then the cells were mixed with HIV-1 strain NL4-3, MOI=0.01 (or IIIB, or CNHN24) and the cell/virus mixture was added to the aforementioned antivirus assay plates. […] The expression level of luciferase was related to HIV-1 infectivity and was measured by Bright-Glo kit (Promega).

HIV-1 strain IIIB [6] = test: Anti-HIV-1 luciferase indicator assay in PBMC cells, IIIB; details: Human immunodeficiency virus 1, IIIB, viral strain II B
Experimental: as §1, with “stock was” for “stock is”, “working plate” for “working plate,”
as §5, §6

HIV-1 strain CNHN24 [7] = test: Anti-HIV-1 luciferase indicator assay in PBMC cells, CNHN24; details: Human immunodeficiency virus 1, viral strain CNHN24
Experimental: as §1, with “stock was” for “stock is”, “working plate” for “working plate,”
as §5, §6

in vitro [8] = details: human
Experimental: as §1, with “stock was” for “stock is”, “working plate” for “working plate,”
For the cytotoxicity assay, the same amount of PBMC cells as in the antivirus assay but without the HIV-1 virus, was added to the cytotoxicity plates. The cytotoxicity was measured by a CellTiter-Glo cell viability assay (Promega).

## C=C(C)[C@@H]1CC[C@]2(C(=O)N[C@@H]3C[C@H](C(=O)N4CCCC4)C3(C)C)CC[C@]3(C)[C@H](CC[C@@H]4[C@@]5(C)CC[C@H](OC(=O)CC(C)(C)C(=O)O)C(C)(C)[C@@H]5CC[C@]43C)[C@@H]12 [Example 45]
HIV-1 strain NL4-3 [1]; Human immunodeficiency virus 1, NL43, MT2, MT2 cells, read-out: IC50
  IC50: 0.017 µM
HIV-1 strain NL4-3 [1]; MT2 cells
  TI / Safety Index (CC50/IC50): 1177
HIV-1 strain IIIB [2]; Human immunodeficiency virus 1, IIIB, MT2, MT2 cells, read-out: IC50
  IC50: 0.025 µM
HIV-1 strain IIIB [2]; MT2 cells
  TI / Safety Index (CC50/IC50): 800
HIV-1 strain CNHN24 [3]; Human immunodeficiency virus 1, MT2, MT2 cells, read-out: IC50
  IC50: 0.022 µM
HIV-1 strain CNHN24 [3]; MT2 cells
  TI / Safety Index (CC50/IC50): 800
In vitro [4]
  CC50: 20 µM
HIV-1 strain NL4-3 [5]
  IC50: 0.017 µM
HIV-1 strain IIIB [6]
  IC50: 0.025 µM
HIV-1 strain CNHN24 [7]
  IC50: 0.022 µM
In vitro [8]
  CC50: > 20 µM
